Reference: US12077503B2, “Substituted cyclic amides and their use as herbicides” (FMC CORPORATION, priority 2015, dated 2024)

Assays:
Type in all cases: in vivo
[1] = test system: Kochia (Kochia scoparia); experiment: Test A preemergence; conditions: Bassia scoparia, pre-emergence, 240 h, preemergence, 0 to 100 scale where 0 is no effect and 100 is complete control, read-out: Kochia plant response rating
How it was run: (§1)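 Greenhouse, ~10 d after spray; visual injury vs untreated controls, 0 = no effect, 100 = complete control. Preemergence: directed soil spray over planted seeds. Postemergence: plants 2–10 cm, 1–2 leaf stage. Loam/sand blend. Compound in non-phytotoxic solvent with surfactant.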

[2] = test system: barnyardgrass (Echinochloa crus-galli); experiment: Test A preemergence; conditions: Echinochloa crus-galli, pre-emergence, 240 h, preemergence, 0 to 100 scale where 0 is no effect and 100 is complete control, read-out: Barnyardgrass plant response rating
How it was run: as §1

[3] = test system: giant foxtail (Setaria faberii); experiment: Test A preemergence; conditions: Setaria faberi, pre-emergence, 240 h, preemergence, 0 to 100 scale where 0 is no effect and 100 is complete control, read-out: Foxtail, Giant plant response rating
How it was run: as §1

[4] = test system: pigweed (Amaranthus retroflexus); experiment: Test A preemergence; conditions: Amaranthus retroflexus, pre-emergence, 240 h, preemergence, 0 to 100 scale where 0 is no effect and 100 is complete control, read-out: Pigweed plant response rating
[5] = test system: ragweed (common ragweed, Ambrosia elatior); experiment: Test A preemergence; conditions: Ambrosia artemisiifolia, pre-emergence, 240 h, preemergence, 0 to 100 scale where 0 is no effect and 100 is complete control, read-out: Ragweed plant response rating
How it was run: as §1

[6] = test system: ryegrass, Italian (Italian ryegrass, Lolium multiflorum); experiment: Test A preemergence; conditions: Lolium multiflorum, pre-emergence, 240 h, preemergence, 0 to 100 scale where 0 is no effect and 100 is complete control, read-out: Ryegrass, Italian plant response rating
How it was run: as §1

[7] = test system: Galium (catchweed bedstraw, Galium aparine); experiment: Test A postemergence; conditions: Galium, post-emergence, 240 h, postemergence
How it was run: as §1

[8] = test system: Kochia (Kochia scoparia); experiment: Test A postemergence; conditions: Bassia scoparia, post-emergence, 240 h, postemergence
How it was run: as §1

[9] = test system: barnyardgrass (Echinochloa crus-galli); experiment: Test A postemergence; conditions: Echinochloa crus-galli, post-emergence, 240 h, postemergence
How it was run: as §1

[10] = test system: blackgrass (Alopecurus myosuroides); experiment: Test A postemergence; conditions: Alopecurus myosuroides, post-emergence, 240 h, postemergence
How it was run: as §1

[11] = test system: corn (Zea mays); experiment: Test A postemergence; conditions: Zea mays, post-emergence, 240 h, postemergence
How it was run: as §1

[12] = test system: giant foxtail (Setaria faberii); experiment: Test A postemergence; conditions: Setaria faberi, post-emergence, 240 h, postemergence
How it was run: as §1

[13] = test system: pigweed (Amaranthus retroflexus); experiment: Test A postemergence; conditions: Amaranthus retroflexus, post-emergence, 240 h, postemergence
How it was run: as §1

[14] = test system: ragweed (common ragweed, Ambrosia elatior); experiment: Test A postemergence; conditions: Ambrosia artemisiifolia, post-emergence, 240 h, postemergence
How it was run: as §1

[15] = test system: ryegrass, Italian (Italian ryegrass, Lolium multiflorum); experiment: Test A postemergence; conditions: Lolium multiflorum, post-emergence, 240 h, postemergence
How it was run: as §1

[16] = test system: wheat (Triticum aestivum); experiment: Test A postemergence; conditions: Triticum aestivum, post-emergence, 240 h, postemergence
How it was run: as §1

[17] = 125 g ai/ha, visual injury rating, approximately 10 d

Q: `CN1C[C@H](c2ccc(C#N)cc2)[C@@H](C(=O)Nc2ccc(F)c(F)c2F)C1=O` [Compound 1229] was tested. Which pest or weed control at 125 g/ha [1, 17] did it give?
A: 90%

Q: And the pest or weed control at 500 g/ha ([1]; 500 g ai/ha)?
A: 90%

Q: And the pest or weed control at 125 g/ha [2, 17]?
A: 90%

Q: What about the pest or weed control at 500 g/ha ([2]; 500 g ai/ha) of the same molecule?
A: 100%

Q: What about the pest or weed control at 125 g/ha [3, 17] of the same molecule?
A: 100%

Q: And the pest or weed control at 500 g/ha ([3]; 500 g ai/ha)?
A: 100%

Q: And the pest or weed control at 125 g/ha [4, 17]?
A: 60%

Q: And the pest or weed control at 500 g/ha ([4]; 500 g ai/ha)?
A: 90%

Q: And the pest or weed control at 125 g/ha [5, 17]?
A: 60%

Q: What about the pest or weed control at 500 g/ha ([5]; 500 g ai/ha) of the same molecule?
A: 70%

Q: What about the pest or weed control at 125 g/ha [6, 17] of the same molecule?
A: 0%

Q: What about the pest or weed control at 500 g/ha ([6]; 500 g ai/ha) of the same molecule?
A: 40%

Q: What about the pest or weed control at 125 g/ha ([7]; 125 g ai/ha, visual injury vs untreated controls after approx. 10 d, 0 = no effect, 100 = complete control, read-out: Galium plant response rating (0 to 100 scale)) of the same molecule?
A: 40%

Q: And the pest or weed control at 500 g/ha ([7]; 500 g ai/ha, 0 to 100 scale, 0 is no effect, 100 is complete control, read-out: Galium plant response rating)?
A: 50%

Q: What about the pest or weed control at 125 g/ha ([8]; 125 g ai/ha, visual injury vs untreated controls after approx. 10 d, 0 = no effect, 100 = complete control, read-out: Kochia plant response rating (0 to 100 scale)) of the same molecule?
A: 70%

Q: What about the pest or weed control at 500 g/ha ([8]; 500 g ai/ha, 0 to 100 scale, 0 is no effect, 100 is complete control, read-out: Kochia plant response rating) of the same molecule?
A: 80%

Q: And the pest or weed control at 125 g/ha ([9]; 125 g ai/ha, visual injury vs untreated controls after approx. 10 d, 0 = no effect, 100 = complete control, read-out: Barnyardgrass plant response rating (0 to 100 scale))?
A: 100%

Q: And the pest or weed control at 500 g/ha ([9]; 500 g ai/ha, 0 to 100 scale, 0 is no effect, 100 is complete control, read-out: Barnyardgrass plant response rating)?
A: 100%

Q: What about the pest or weed control at 125 g/ha ([10]; 125 g ai/ha, visual injury vs untreated controls after approx. 10 d, 0 = no effect, 100 = complete control, read-out: Blackgrass plant response rating (0 to 100 scale)) of the same molecule?
A: 0%

Q: What about the pest or weed control at 500 g/ha ([10]; 500 g ai/ha, 0 to 100 scale, 0 is no effect, 100 is complete control, read-out: Blackgrass plant response rating) of the same molecule?
A: 40%

Q: And the plant injury at 125 g/ha ([11]; 125 g ai/ha, visual injury vs untreated controls after approx. 10 d, 0 = no effect, 100 = complete control, read-out: Corn plant response rating (0 to 100 scale))?
A: 0%

Q: What about the plant injury at 500 g/ha ([11]; 500 g ai/ha, 0 to 100 scale, 0 is no effect, 100 is complete control, read-out: Corn plant response rating) of the same molecule?
A: 0%

Q: And the pest or weed control at 125 g/ha ([12]; 125 g ai/ha, visual injury vs untreated controls after approx. 10 d, 0 = no effect, 100 = complete control, read-out: Foxtail, Giant plant response rating (0 to 100 scale))?
A: 90%

Q: What about the pest or weed control at 500 g/ha ([12]; 500 g ai/ha, 0 to 100 scale, 0 is no effect, 100 is complete control, read-out: Foxtail, Giant plant response rating) of the same molecule?
A: 90%

Q: What about the pest or weed control at 125 g/ha ([13]; 125 g ai/ha, visual injury vs untreated controls after approx. 10 d, 0 = no effect, 100 = complete control, read-out: Pigweed plant response rating (0 to 100 scale)) of the same molecule?
A: 40%

Q: What about the pest or weed control at 500 g/ha ([13]; 500 g ai/ha, 0 to 100 scale, 0 is no effect, 100 is complete control, read-out: Pigweed plant response rating) of the same molecule?
A: 60%

Q: And the pest or weed control at 125 g/ha ([14]; 125 g ai/ha, visual injury vs untreated controls after approx. 10 d, 0 = no effect, 100 = complete control, read-out: Ragweed plant response rating (0 to 100 scale))?
A: 0%

Q: And the pest or weed control at 500 g/ha ([14]; 500 g ai/ha, 0 to 100 scale, 0 is no effect, 100 is complete control, read-out: Ragweed plant response rating)?
A: 0%

Q: And the pest or weed control at 125 g/ha ([15]; 125 g ai/ha, visual injury vs untreated controls after approx. 10 d, 0 = no effect, 100 = complete control, read-out: Ryegrass, Italian plant response rating (0 to 100 scale))?
A: 0%

Q: What about the pest or weed control at 500 g/ha ([15]; 500 g ai/ha, 0 to 100 scale, 0 is no effect, 100 is complete control, read-out: Ryegrass, Italian plant response rating) of the same molecule?
A: 40%

Q: What about the plant injury at 125 g/ha ([16]; 125 g ai/ha, visual injury vs untreated controls after approx. 10 d, 0 = no effect, 100 = complete control, read-out: Wheat plant response rating (0 to 100 scale)) of the same molecule?
A: 0%

Q: And the plant injury at 500 g/ha ([16]; 500 g ai/ha, 0 to 100 scale, 0 is no effect, 100 is complete control, read-out: Wheat plant response rating)?
A: 50%
